Experimental data taken from US6525059B1, “Substituted pyrazoles as p38 kinase inhibitors” (G. D. Searle & Company, priority 1998, dated 2003).

Columns and labels:
human p38 kinase alpha = target: T1, human p38 kinase alpha (Homo sapiens, UniProt Q16539); assay: p38 kinase in vitro assay, phosphorylation of biotinylated PHAS-I with gamma 32P-ATP; assay type: biochemical; conditions: for inhibition at 1 µM / inhibition at 10 µM: read-out: P38 alpha kinase % inhib @ conc.; for IC50: read-out: P38 alpha kinase IC50
T1 construct: The coding region of the human p38a cDNA was obtained by PCR-amplification from RNA isolated from the human monocyte cell line THP.1; GST (N); made in house; host or cells: E. coli DH10B
T1 sequence (Q16539 whole entry): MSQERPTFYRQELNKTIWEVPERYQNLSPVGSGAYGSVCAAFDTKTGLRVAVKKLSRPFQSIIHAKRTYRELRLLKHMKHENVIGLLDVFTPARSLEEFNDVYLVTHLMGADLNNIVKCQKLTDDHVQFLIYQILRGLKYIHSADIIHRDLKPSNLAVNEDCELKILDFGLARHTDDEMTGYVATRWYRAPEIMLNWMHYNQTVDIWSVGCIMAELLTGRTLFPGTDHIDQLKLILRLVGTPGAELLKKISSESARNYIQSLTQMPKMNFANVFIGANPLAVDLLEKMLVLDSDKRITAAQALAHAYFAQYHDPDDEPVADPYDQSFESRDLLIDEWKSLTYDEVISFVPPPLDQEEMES
Summary of the method: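 MKK6-activated human p38α phosphorylates biotinylated PHAS-I with γ-32P-ATP in 25 mM HEPES pH 7.5, 10 mM Mg acetate, 50 μM unlabeled ATP, 1% DMSO, 30 °C for 1 h or overnight. Compounds at 100–0.001 μM (10-fold steps, triplicate); substrate captured on streptavidin filter plates and counted by scintillation.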

TNF-α = assay: LPS stimulation of TNF production by U937 cells; assay type: cell-based, human; conditions: for inhibition at 1 µM / IC50: Homo sapiens; for inhibition at 1 µM: U-937, @ 1.0 uM, read-out: U937 Cell % inhib @ conc.; for IC50: U-937, TNF production, LPS-stimulated human U937 cells, read-out: U937 Cell IC50
Method: Fifty million cells in 100 ml media were induced to terminal monocytic differentiation by 24 hour incubation with 20 ng/ml phorbol 12-myristate 13-acetate (Sigma). The cells were washed by centrifugation (200×g for 5 min) and resuspended in 100 ml fresh medium. After 24-48 hours, the cells were harvested, centrifuged, and resuspended in culture medium at 2 million cells/ml.
Compounds were prepared as 10 mM stock solutions in DMSO and diluted in culture medium to yield a final DMSO concentration of 0.1% in the cell assay. LPS (E coli, 100 ng/ml final concentration) was then added at a volume of 0.02 ml. After 4 hour incubation at 37° C., the amount of TNF-α released in the culture medium was quantitated by ELISA. Inhibitory potency is expressed as IC50 (μM).
In vitro whole cell assay for measuring the ability of the compounds to inhibit TNF production in human U937 cells stimulated with LPS are shown in the column identified as: […]

| inhibition at 1 µM (human p38 kinase alpha) | IC50 (TNF-α) | inhibition at 10 µM (human p38 kinase alpha; @ 10.0 uM) | SMILES | inhibition at 1 µM (TNF-α) | also measured |
| --- | --- | --- | --- | --- | --- |
| 66% |  |  | O=S(=O)(NCc1[nH]nc(-c2ccc(F)cc2)c1-c1ccncc1)c1ccc2ccccc2c1 [Example B-0110] | 13% |  |
| 57% | > 1000 nM |  | O=S(=O)(NCc1[nH]nc(-c2ccc(F)cc2)c1-c1ccncc1)c1cccc2ccccc12 [Example B-0111] |  |  |
| 45% | 3920 nM |  | O=[N+]([O-])c1cccc(S(=O)(=O)NCc2[nH]nc(-c3ccc(F)cc3)c2-c2ccncc2)c1 [Example B-0114] |  |  |
| 73% |  |  | Cc1c(Cl)cccc1S(=O)(=O)NCc1[nH]nc(-c2ccc(F)cc2)c1-c1ccncc1 [Example B-0124] | 15% |  |
| 60% | 2170 nM |  | O=S(=O)(NCc1[nH]nc(-c2ccc(F)cc2)c1-c1ccncc1)c1ccc(F)cc1F [Example B-0134] |  |  |
| 78% |  |  | COc1ccc(S(=O)(=O)NCc2[nH]nc(-c3ccc(F)cc3)c2-c2ccncc2)c([N+](=O)[O-])c1 [Example B-0141] | 10% |  |
|  |  | 54% | CSc1cccc(NC(=O)NCc2[nH]nc(-c3ccc(F)cc3)c2-c2ccncc2)c1 [Example B-0145] | 12% |  |
|  |  | 37% | O=C(NCc1[nH]nc(-c2ccc(F)cc2)c1-c1ccncc1)Nc1cc(Cl)cc(Cl)c1 [Example B-0164] | 20% |  |

The next lines start with the molecule.

| SMILES | inhibition at 1 µM (human p38 kinase alpha) | IC50 (TNF-α) | inhibition at 10 µM (human p38 kinase alpha; @ 10.0 uM) | inhibition at 1 µM (TNF-α) | also measured |
| --- | --- | --- | --- | --- | --- |
| Cc1ccc(S(=O)(=O)NCc2[nH]nc(-c3ccc(F)cc3)c2-c2ccncc2)cc1 [Example B-0118] |  | 1290 nM |  |  | IC50 (human p38 kinase alpha): 1180 nM |
| O=S(=O)(/C=C\c1ccccc1)NCc1[nH]nc(-c2ccc(F)cc2)c1-c1ccncc1 [Example B-0119] |  | 2780 nM | 89% |  |  |
| CN(C)c1cccc2c(S(=O)(=O)NCc3[nH]nc(-c4ccc(F)cc4)c3-c3ccncc3)cccc12 [Example B-0122] |  |  | 79% | 2% |  |
| CC(C)c1ccc(S(=O)(=O)NCc2[nH]nc(-c3ccc(F)cc3)c2-c2ccncc2)cc1 [Example B-0123] | 59% | > 1000 nM |  |  |  |
| CCCCOc1ccc(S(=O)(=O)NCc2[nH]nc(-c3ccc(F)cc3)c2-c2ccncc2)cc1 [Example B-0129] | 51% |  |  | 31% |  |
| CCc1ccc(S(=O)(=O)NCc2[nH]nc(-c3ccc(F)cc3)c2-c2ccncc2)cc1 [Example B-0132] | 76% |  |  | 8% |  |
| CCCCCCCCS(=O)(=O)NCc1[nH]nc(-c2ccc(F)cc2)c1-c1ccncc1 [Example B-0142] | 86% |  |  | 12% |  |
| O=C(NCc1[nH]nc(-c2ccc(F)cc2)c1-c1ccncc1)NC(=O)c1ccccc1 [Example B-0146] |  |  | 77% | 28% |  |
| CC(C)NC(=O)NCc1[nH]nc(-c2ccc(F)cc2)c1-c1ccncc1 [Example B-0149] |  | 10000 nM |  |  | IC50 (human p38 kinase alpha): 1150 nM |
| O=C(NCc1[nH]nc(-c2ccc(F)cc2)c1-c1ccncc1)N[C@@H]1C[C@@H]1c1ccccc1 [Example B-0153] | 57% |  |  | 21% |  |
| CCOC(=O)c1cccc(NC(=O)NCc2[nH]nc(-c3ccc(F)cc3)c2-c2ccncc2)c1 [Example B-0154] |  |  | 65% | 14% |  |
| CCCCCc1ccc(NC(=O)NCc2[nH]nc(-c3ccc(F)cc3)c2-c2ccncc2)cc1 [Example B-0156] |  |  |  |  | P38 alpha kinase % inhib @ conc. (human p38 kinase alpha; @ 10.0 uM): 42.0% @ 10.0 uM; U937 Cell % inhib @ conc. (TNF-α; @ 1.0 uM): 13.0% @ 1.0 uM |
| O=C(NCCc1ccccc1)NCc1[nH]nc(-c2ccc(F)cc2)c1-c1ccncc1 [Example B-0157] |  |  | 48% | 9% |  |
| CCOC(=O)c1ccc(NC(=O)NCc2[nH]nc(-c3ccc(F)cc3)c2-c2ccncc2)cc1 [Example B-0161] |  |  | 72% | 13% |  |
| O=C(NCc1[nH]nc(-c2ccc(F)cc2)c1-c1ccncc1)Nc1ccc(C(F)(F)F)cc1 [Example B-0163] |  |  | 20% | 10% |  |
| Cc1cccc(C)c1NC(=O)NCc1[nH]nc(-c2ccc(F)cc2)c1-c1ccncc1 [Example B-0168] | 44% | 2360 nM |  |  |  |
